Measurements published in ChEMBL document CHEMBL1201862, “PubChem BioAssay data set” (2004).
Activity calls are given as the source filed them.

Key:
[1] = molecular target: T1, Zinc finger protein mex-5 (Caenorhabditis elegans, UniProt Q9XUB2); assay: potency of MEX-5 RNA-binding blockers – biochemical, C. elegans, fluorescence polarization, dose response (AID 1960)
T1 sequence (Q9XUB2 whole entry): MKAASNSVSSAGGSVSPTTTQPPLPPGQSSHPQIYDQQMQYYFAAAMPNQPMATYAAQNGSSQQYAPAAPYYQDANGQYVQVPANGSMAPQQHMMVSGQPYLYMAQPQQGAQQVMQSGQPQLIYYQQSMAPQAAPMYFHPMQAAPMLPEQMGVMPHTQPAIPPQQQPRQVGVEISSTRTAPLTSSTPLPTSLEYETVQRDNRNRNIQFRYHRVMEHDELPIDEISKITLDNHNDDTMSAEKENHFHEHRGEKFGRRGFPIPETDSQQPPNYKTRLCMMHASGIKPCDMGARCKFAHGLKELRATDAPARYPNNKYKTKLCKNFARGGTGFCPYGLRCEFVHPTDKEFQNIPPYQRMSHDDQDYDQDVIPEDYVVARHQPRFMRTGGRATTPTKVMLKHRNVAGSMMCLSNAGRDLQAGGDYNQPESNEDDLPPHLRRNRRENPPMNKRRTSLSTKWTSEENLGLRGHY

[2] = Luminescence Cell-Based Dose Response HTS to Identify Inhibitors of 5'UTR Stem-Loop Driven Prion Protein mRNA Translation in H4 Neuroglioblastoma Cells. [Related pubchem assays: 1827 (Project Summary), 1813 (Primary HTS)]; type: functional
[3] = molecular target: T2, Oxysterols receptor LXR-beta (Homo sapiens, UniProt P55055); type: functional, cell-based;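 note: Cell-based luminescence dose-response assay of agonist activity at LXR, run as a confirmatory counterscreen to a daf-12 agonist screen; HEK293 cells with Gal4-LXR fusion and GAL4-driven luciferase reporter; agonist potency from rising luciferase signal of a Gal4-LXR reporter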
T2 sequence (P55055 whole entry): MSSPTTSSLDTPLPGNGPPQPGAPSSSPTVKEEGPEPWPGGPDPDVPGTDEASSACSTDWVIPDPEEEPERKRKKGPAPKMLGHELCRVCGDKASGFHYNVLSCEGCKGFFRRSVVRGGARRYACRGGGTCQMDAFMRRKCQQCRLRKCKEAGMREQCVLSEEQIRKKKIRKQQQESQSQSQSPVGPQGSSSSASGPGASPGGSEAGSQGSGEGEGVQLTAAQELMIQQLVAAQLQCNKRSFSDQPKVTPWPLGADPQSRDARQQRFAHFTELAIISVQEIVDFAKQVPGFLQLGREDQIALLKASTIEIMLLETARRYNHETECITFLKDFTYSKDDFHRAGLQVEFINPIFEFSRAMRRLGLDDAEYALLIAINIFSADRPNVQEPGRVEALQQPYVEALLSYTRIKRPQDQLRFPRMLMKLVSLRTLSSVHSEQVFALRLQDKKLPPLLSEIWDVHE

[4] = alpha-synuclein stem-loop luciferase translation blockers – H4 neuroglioma cells, luminescence, confirmation (AID 1988); type: functional, cell-based
[5] = molecular target: T3, RNA-binding protein pos-1 (Caenorhabditis elegans, UniProt G5EF15); assay: disruptors of C. elegans POS-1 RNA interaction – biochemical, fluorescence polarization, dose response (AID 1964);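 note: purified POS-1 fused to maltose binding protein made in E. coli; potency of compounds blocking POS-1 binding to fluorescent RNA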
T3 sequence (G5EF15 whole entry): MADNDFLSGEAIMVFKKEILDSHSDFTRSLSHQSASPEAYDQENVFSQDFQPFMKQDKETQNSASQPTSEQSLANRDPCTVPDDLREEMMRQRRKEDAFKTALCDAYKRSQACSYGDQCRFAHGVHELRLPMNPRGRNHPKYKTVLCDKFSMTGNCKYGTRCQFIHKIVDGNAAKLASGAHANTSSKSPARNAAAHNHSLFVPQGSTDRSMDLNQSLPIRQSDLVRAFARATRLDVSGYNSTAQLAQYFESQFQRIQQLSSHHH

[6] = Luminescence-based cell-based high throughput dose response assay to identify activators of the DAF-12 from the parasite S. stercoralis (ssDAF-12).; type: functional
[7] = molecular target: RNA-editing ligase 1, mitochondrial (Trypanosoma brucei brucei, UniProt P86926); assay: inhibition of trypanosome RNA editing ligase – biochemical, fluorescence, Trypanosoma brucei, dose response (AID 1117295); type: functional
[8] = molecular target: T4, Mannose-6-phosphate isomerase (Homo sapiens, UniProt P34949); assay: MPI inhibition at elevated mannose 6-phosphate – biochemical, fluorescence intensity, high mannose 6-phosphate, primary screen (AID 1220)
T4 sequence (P34949 whole entry): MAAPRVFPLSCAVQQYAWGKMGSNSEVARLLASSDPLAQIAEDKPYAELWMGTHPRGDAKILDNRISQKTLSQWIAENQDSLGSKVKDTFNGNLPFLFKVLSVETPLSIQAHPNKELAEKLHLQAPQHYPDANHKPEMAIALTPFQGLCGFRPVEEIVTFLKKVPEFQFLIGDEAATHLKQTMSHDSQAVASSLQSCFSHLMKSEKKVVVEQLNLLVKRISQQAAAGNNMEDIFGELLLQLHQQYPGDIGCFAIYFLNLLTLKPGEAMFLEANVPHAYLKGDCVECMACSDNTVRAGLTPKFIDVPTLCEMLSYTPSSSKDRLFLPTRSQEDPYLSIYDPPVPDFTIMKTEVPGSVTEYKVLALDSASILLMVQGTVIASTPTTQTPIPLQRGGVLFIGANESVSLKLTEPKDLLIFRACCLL

[9] = viability of HCT116 lacking mutant beta-catenin – cell-based, human colon tumor, dose response (AID 1045); type: functional;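 note: HCT116 colon tumor cells with beta catenin knocked out; cells exposed to compound for 60 hours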
[10] = molecular target: DNA damage-inducible transcript 3 protein (Mus musculus, UniProt P35639); type: functional, Cricetulus griseus
Coagulation factor XII = molecular target: T5, Coagulation factor XII (Homo sapiens, UniProt P00748); type: functional;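 note: activated factor XIIa alpha cleaving a fluorogenic AMC peptide substrate; inhibitor potency from loss of enzyme activity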
T5 sequence (P00748 whole entry): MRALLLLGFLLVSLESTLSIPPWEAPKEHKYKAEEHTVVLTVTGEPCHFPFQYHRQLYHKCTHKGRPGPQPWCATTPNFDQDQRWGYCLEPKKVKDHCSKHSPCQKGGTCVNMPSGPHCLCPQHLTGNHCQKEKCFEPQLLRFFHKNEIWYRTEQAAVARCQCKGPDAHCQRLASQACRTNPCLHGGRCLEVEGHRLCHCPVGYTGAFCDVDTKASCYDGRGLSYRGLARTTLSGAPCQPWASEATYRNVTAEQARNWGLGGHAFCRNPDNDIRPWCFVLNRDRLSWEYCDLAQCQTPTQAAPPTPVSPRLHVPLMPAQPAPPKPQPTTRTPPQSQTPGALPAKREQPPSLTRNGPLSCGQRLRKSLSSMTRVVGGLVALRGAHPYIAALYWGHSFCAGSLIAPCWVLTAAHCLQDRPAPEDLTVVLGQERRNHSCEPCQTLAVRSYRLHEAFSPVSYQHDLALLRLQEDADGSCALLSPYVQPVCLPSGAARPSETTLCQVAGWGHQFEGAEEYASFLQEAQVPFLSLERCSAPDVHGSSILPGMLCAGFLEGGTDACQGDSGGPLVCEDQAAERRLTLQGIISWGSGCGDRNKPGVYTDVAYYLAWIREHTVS

[11] = viability of PTEN-deleted HCT116 cells – cell-based, HCT116 PTEN knockout, dose response (AID 1047); type: functional;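 note: HCT116 colon tumor cells with PTEN knocked out; cells exposed to compound for 60 hours before readout; potency for loss of cell viability measured by luminescence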
[12] = COV362 cell viability loss – plate reader, dry powder, SA12, cytotoxicity control for PAX8 inhibitor project, dose response (AID 743144); type: functional, cell-based
[13] = inhibitors acting on PAX2 in cells – cell-based, plate reader, dry powder samples, selectivity assay for PAX8 inhibitor project, dose response (AID 743048); type: functional;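 note: HEK293 cells carrying a WT1 promoter luciferase reporter driven by expressed Pax2; potency is for inhibition of Pax2 driven reporter signal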
[14] = OVCAR-3 cell viability loss – plate reader, dry powder samples, PAX8 inhibitor project, dose response (AID 743044); type: functional, cell-based
[15] = COV434 cell viability loss – plate reader, dry powder, SA7, cytotoxicity control for PAX8 inhibitor project, dose response (AID 743145); type: functional, cell-based
Paired box protein Pax-8 = Paired box protein Pax-8 (Homo sapiens, UniProt Q06710); assay: PAX8 transcriptional activity inhibition in RMG-I – RMG-I cells, luciferase, cherry-pick, dose response (AID 687027); type: functional, cell-based;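 note: luciferase reporter driven by Pax8 target thyroperoxidase promoter measured by SteadyGlo luminescence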
[16] = OV-90 cell viability loss – plate reader, dry powder, SA8, PAX8 inhibitor project, dose response (AID 743149); type: functional, cell-based
[17] = PAX5 cellular inhibition readout – cell-based, plate reader, dry powder samples, selectivity assay for PAX8 inhibitor project, dose response (AID 743047); type: functional;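 note: HEK293 cells carrying a Pax5 driven CD19 promoter luciferase reporter; potency of inhibitors that lower reporter luminescence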
[18] = PAX8-dependent cell viability loss – plate reader, dry powder, dose response (AID 743049); type: functional, cell-based
[19] = NIH3T3 cell viability loss – ATP luminescence, mouse fibroblasts, counter-screen, dose response (AID 2010); type: functional, cell-based;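 note: cells exposed to compound for about 90 hours before reading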
[20] = molecular target: T6, Probable nicotinate-nucleotide adenylyltransferase (Staphylococcus aureus (strain N315), UniProt P65502); type: functional, Staphylococcus aureus subsp. aureus N315;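 for IC50 Mean: confirmatory dose-response retesting of NadD inhibitor hits first found in an ultra-high-throughput screen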
[21] = molecular target: T6, Probable nicotinate-nucleotide adenylyltransferase; type: functional, Staphylococcus aureus subsp. aureus N315; details: read-out: IC50_Mean
[22] = Trypanosoma cruzi growth suppression in host cells – NIH3T3 host cells, beta-gal luminescence, confirmation (AID 2044); type: functional, cell-based;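 note: intracellular parasites grown in NIH/3T3 mouse fibroblasts as host cells; luminescent beta-galactosidase reporter signal from transgenic T. cruzi replicating inside host cells; inhibitors lower the luminescence signal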
Genome polyprotein = Genome polyprotein (Hepatitis C virus, UniProt Q2Q167); assay: disruption of hepatitis C core self-association – biochemical, TR-FRET, dose response (AID 2159); set-up: species or system Hepacivirus hominis;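 note: blocks dimerization of HCV core protein measured by TR-FRET between tagged core106 pairs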
[23] = Dd2 parasite growth inhibition in erythrocytes – SYBR Green, dry powder samples, set 9, dose response (AID 1159568); type: functional, cell-based
[24] = Potency on glucagon-like peptide 1 release, dose-response in NCI-H716 cell line, half maximal inhibitory concentration (AID 1117344); type: functional, cell-based
[25] = glucagon-like peptide-1 release potency in STC-1, concentration-response, half-maximal inhibitory concentration in the STC-1 line (AID 1117345); type: functional, cell-based
[26] = molecular target: Endoplasmic reticulum aminopeptidase 1 (Homo sapiens, UniProt Q9NZ08); assay: inhibition of human ERAP1 enzyme activity – biochemical, cherry-pick, set 2, plate reader, dose response (AID 743314)
Chain of Endoplasmic reticulum aminopeptidase 1 (Q9NZ08 whole entry): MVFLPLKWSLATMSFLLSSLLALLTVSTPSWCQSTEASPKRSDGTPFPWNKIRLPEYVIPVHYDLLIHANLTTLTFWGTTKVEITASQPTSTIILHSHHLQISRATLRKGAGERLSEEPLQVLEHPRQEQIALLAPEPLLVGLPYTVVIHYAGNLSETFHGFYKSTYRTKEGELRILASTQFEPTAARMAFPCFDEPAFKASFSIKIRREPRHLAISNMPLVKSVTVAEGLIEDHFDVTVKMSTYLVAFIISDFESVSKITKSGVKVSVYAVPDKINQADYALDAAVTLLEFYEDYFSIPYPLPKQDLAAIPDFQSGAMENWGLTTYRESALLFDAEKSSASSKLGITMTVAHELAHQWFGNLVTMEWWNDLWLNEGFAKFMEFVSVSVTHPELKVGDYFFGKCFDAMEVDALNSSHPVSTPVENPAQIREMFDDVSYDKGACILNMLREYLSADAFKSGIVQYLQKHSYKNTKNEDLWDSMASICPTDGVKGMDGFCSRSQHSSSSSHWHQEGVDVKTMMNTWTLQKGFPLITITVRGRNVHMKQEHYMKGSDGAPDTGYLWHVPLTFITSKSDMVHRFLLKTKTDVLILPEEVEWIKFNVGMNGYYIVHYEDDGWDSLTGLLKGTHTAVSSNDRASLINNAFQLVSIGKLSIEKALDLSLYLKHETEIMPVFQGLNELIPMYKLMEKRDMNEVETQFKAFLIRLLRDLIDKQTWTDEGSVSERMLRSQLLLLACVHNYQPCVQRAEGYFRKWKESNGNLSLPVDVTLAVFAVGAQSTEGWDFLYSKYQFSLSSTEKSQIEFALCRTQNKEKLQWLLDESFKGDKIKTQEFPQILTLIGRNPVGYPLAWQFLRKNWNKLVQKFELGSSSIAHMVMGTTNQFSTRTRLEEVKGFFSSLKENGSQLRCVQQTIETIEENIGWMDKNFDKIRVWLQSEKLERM

Chain of RNA-editing ligase 1, mitochondrial (P86926 whole entry): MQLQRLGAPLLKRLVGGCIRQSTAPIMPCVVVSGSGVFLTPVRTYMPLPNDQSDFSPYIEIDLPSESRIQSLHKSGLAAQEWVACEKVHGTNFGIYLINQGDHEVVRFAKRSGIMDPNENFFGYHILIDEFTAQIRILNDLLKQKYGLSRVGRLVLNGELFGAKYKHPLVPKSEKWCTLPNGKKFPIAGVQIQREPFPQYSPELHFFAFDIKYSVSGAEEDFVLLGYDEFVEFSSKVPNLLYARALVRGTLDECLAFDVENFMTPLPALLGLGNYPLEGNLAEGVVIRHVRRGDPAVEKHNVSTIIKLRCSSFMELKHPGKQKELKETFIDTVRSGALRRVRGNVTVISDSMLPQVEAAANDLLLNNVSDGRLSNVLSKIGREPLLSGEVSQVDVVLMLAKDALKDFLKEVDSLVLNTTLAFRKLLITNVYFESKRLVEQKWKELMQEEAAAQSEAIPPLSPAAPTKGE
T6 sequence (P65502 whole entry): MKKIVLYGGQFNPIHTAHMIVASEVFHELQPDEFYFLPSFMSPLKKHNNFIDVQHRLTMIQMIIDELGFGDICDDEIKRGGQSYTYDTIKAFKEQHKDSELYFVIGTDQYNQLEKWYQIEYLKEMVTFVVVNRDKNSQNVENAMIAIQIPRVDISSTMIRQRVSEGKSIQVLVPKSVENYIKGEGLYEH
Chain of Paired box protein Pax-8 (Q06710 whole entry): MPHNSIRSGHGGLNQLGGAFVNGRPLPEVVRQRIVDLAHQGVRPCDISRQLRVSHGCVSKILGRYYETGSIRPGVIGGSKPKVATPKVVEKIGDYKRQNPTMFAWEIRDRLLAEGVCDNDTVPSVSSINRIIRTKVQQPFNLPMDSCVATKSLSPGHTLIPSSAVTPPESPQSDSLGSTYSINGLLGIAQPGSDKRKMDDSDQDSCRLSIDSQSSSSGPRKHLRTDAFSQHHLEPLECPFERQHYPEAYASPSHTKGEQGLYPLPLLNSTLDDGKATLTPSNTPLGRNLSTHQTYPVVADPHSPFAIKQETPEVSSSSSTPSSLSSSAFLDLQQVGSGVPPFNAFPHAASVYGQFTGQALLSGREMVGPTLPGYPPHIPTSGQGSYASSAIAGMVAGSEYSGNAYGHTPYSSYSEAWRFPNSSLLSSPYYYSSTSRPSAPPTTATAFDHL
Chain of DNA damage-inducible transcript 3 protein (P35639 whole entry): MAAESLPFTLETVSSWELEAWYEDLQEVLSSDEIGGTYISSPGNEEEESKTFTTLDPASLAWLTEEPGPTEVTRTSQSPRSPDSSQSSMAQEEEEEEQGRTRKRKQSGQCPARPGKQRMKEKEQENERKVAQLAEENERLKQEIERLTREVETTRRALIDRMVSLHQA
Chain of Genome polyprotein (Q2Q167 whole entry): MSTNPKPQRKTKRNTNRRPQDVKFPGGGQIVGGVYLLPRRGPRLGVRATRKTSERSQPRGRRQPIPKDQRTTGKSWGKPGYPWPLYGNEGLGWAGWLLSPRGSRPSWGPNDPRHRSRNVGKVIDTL

O=C1c2ccccc2C(=O)C1c1ccc2ccccc2n1
EC50 [1]: > 300 µM (not active)
EC50 [2]: 7.02 µM (active)
EC50 [3]: > 67.5 µM (inactive)
EC50 (cells): > 67.5 µM (inactive)
EC50 [4]: 3.11 µM (active)
EC50 [5]: > 300 µM (not active)
IC50 [6]: > 67.5 µM (inactive)

COC(=O)C1=C(C)N(Cc2cccc(C(F)(F)F)c2)C(NCc2cccc(C(F)(F)F)c2)=NC1c1ccccc1C(F)(F)F (stereo unspecified)
IC50 [7]: > 96.6 µM (inactive)

COc1cc(C(=O)O/N=C2\C=CC(=O)C(C)=C2)cc(OC)c1OC
IC50 [8]: > 50 µM (not active)
EC50 [9]: 3.63 µM (active)
Absolute IC50 (CHOP) [10]: 10 µM
IC50 (Coagulation factor XII): 0.623 µM (active)
EC50 [11]: 5.17 µM (active)

CCCC#Cc1ccc([C@@H]2[C@H](C#N)N(S(=O)(=O)c3cccc(F)c3)[C@H]2CO)cc1
AC50 [12]: 35.2 µM (active)
AC50 [13]: 15.6 µM (active)
AC50 [14]: 31.9 µM (active)
AC50 [15]: 63.8 µM (active)
AC50 (Paired box protein Pax-8): 5.57 µM (active)
AC50 [16]: 26.9 µM (active)
AC50 [17]: 14.2 µM (active)
AC50 [18]: 17 µM (active)

Cc1ccc(C2CC(c3cccs3)=NN2C(=O)CSc2nc(=O)n3ccc(C)cc3n2)cc1 (stereo unspecified)
EC50 [19]: > 60 µM (not active)
IC50 [20]: 5.52 µM (active)
IC50 [21]: 25.4 µM (active)
EC50 [22]: 2.54 µM (active)
IC50 (Genome polyprotein): > 49.8 µM (not active)

CCCNC(=O)N1[C@H](C#N)[C@H](c2ccccc2-c2ccc(OC)cc2)[C@@H]1CO
AC50 [23]: 3.54 µM (active)

CCCOC(C(=O)OC1CCN(C)CC1)(c1ccccc1)c1ccccc1
IC50 [24]: > 40 µM (inactive)
IC50 [25]: 23.8 µM (inactive)

CCC(C)NC(=O)C1CCN(S(=O)(=O)c2ccc3[nH]c(=O)oc3c2)CC1 (stereo unspecified)
IC50 [7]: 19.7 µM (inactive)

COc1ccc(S(=O)(=O)N(C)C[C@@H]2Oc3ncccc3C(=O)N([C@H](C)CO)C[C@@H]2C)cc1
AC50 [26]: 8.41 µM (active)
